Data on 25 molecules can be found in PubChem BioAssay (NCI).

Each structure is given as a SMILES string.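 A five-concentration, 48-hour dose response in 96-well plates underlies each endpoint, interpolated linearly between surrounding concentrations. The concentration for 50% growth inhibition is given as GI50. The concentration for full growth arrest is given as TGI.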

What all share (assay): NCI anticancer screen, dose series, 48 h
Experiment [1] deals with RPMI-8226 leukemia.
Experiment [2] concerns ACHN renal.
Experiment [3] relates to HCT-15 colon.
Experiment [4] relates to HCT-116 colon.
The subject of experiment [5] is NCI-H23 lung.
The test system of experiment [6] is HOP-92 NSCLC.
The test system of experiment [7] is OVCAR-5 ovarian.
Experiment [8] relates to KM12 colon.
Experiment [9] relates to HS 578T breast.
For experiment [10], the system named is MCF7 breast.

For the molecule `Cc1ccc(OCC2=NC3S/C(=C/c4ccc([N+](=O)[O-])o4)C(=O)N3N2)cc1` (centres undefined), the TGI was found to be 6.16 µM in experiment [1]; 3.14 µM in experiment [2]; 7.04 µM in [3]; 15.9 µM in experiment [4]; 28.8 µM in experiment [5]; 8.8 µM in experiment [6]. Also, the figures for the TGI in experiment [7], in [8] and in experiment [9] were 35.2 µM, 32 µM and 89 µM, respectively.

As for `COc1cc(C2c3cc4c(cc3[C@@H](Nc3ccc(Oc5ccccc5)cc3)C3COC(=O)[C@H]23)OCO4)cc(OC)c1O` (some centres undefined), the TGI in experiment [1] was 5.86 µM; in [10], above 37.1 µM; in [3] it was 19.7 µM; in experiment [4], above 100 µM; in [5], 6.68 µM; in experiment [7], above 100 µM. In experiment [8], the TGI is above 100 µM.

With `CCOC(=O)c1c(-c2cccc(Cl)c2)c(C(=O)OC)c(C)c2sc(C=O)nc12`, the TGI was 46.4 µM in experiment [1]; 35.7 µM in experiment [10]; 31.4 µM in [2]; 36.9 µM in experiment [3]; 21.1 µM in experiment [4]; above 100 µM in experiment [5]. The TGI in experiment [6] turned out to be 34.2 µM; in experiment [7] it was 35.7 µM; in [8], 37.8 µM; in experiment [9] it was 50.5 µM.

As for `Cc1cc2ccc(OC(=O)c3ccc(N=C(N)N)cc3)cc2oc1=O`, the TGI in [1] was 55.1 µM; in experiment [10] it was 54.9 µM; in [2], above 100 µM; in [3], above 100 µM; in [4], 76.5 µM; in [5], 46.5 µM. The TGI in experiment [6] was above 100 µM; in [7], above 100 µM; in [8], 61.1 µM; in experiment [9] it was 71.6 µM.

Take `COC(=O)c1cc(NC(=O)c2cc(NC(=O)Cc3c[nH]c4ccccc34)cn2C)cn1C`: the TGI in experiment [1] is 48.4 µM; in experiment [10], above 100 µM; in experiment [2], above 100 µM; in experiment [3], above 100 µM; in [4] it was 84.1 µM; in experiment [5], 83.5 µM. The TGI in experiment [7] and in [8] was above 100 µM in each case.

As for `COC(=O)C1=C(OC(=O)/C=C/c2ccc(Cl)cc2)C(C(=O)OC)[C@]2(O)[C@@H](C(=O)OC)[C@H]1C[C@@H](c1ccccc1)[C@@H]2C(=O)OC` (some centres undefined), the TGI in experiment [1] is above 100 µM; in experiment [2] it was above 100 µM; in experiment [3], above 47.1 µM; in experiment [4] it was above 29.4 µM; in experiment [5] it was above 25.1 µM; in experiment [6], 7.73 µM. Further, the values for the TGI in experiment [7], in experiment [8] and in experiment [9] were above 100 µM, above 100 µM and 94 µM, respectively.

With `CC1C(=O)c2cc3c(cc2CCN(C)Cc2c1ccc1c2OCO1)OCO3` (centres undefined), the GI50 in experiment [1] is 34.6 mg/L; in [10] it was 48.5 mg/L; in experiment [2] it was above 75 mg/L; in experiment [3], above 75 mg/L; in experiment [4] it was 23.4 mg/L; in experiment [5], above 75 mg/L. In addition, the GI50 in experiment [6] is above 75 mg/L; in experiment [7], above 75 mg/L; in experiment [8], 59 mg/L; in [9] it was above 75 mg/L. Moreover, the TGI in experiment [1], in experiment [10], in experiment [2], in [3], in [4] and in experiment [5] was above 75 mg/L in each case. Further, the TGI in experiment [6], in experiment [7], in [8] and in experiment [9] was above 75 mg/L each time.

Consider `CS(C)(=O)=Nn1c(=O)n2n(c1=O)C1c3ccccc3C2c2ccccc21`, for which the TGI in [1], in experiment [10], in [2], in [3], in experiment [5] and in [6] was above 100 µM throughout. The molecule further came in with a TGI in [7] above 100 µM.

Turning to `COc1ccc(-c2nn(-c3ccc(NC(=O)c4cc(Cl)cc(Cl)c4)cc3)cc2-c2ccncc2)cc1Cl`, the GI50 was 0.494 µM in [1]; above 100 µM in experiment [10]; above 100 µM in [2]; 1.77 µM in [3]; 7 µM in experiment [4]; above 100 µM in experiment [5]. In addition, the GI50 in [8] was 4.29 µM. For the same molecule, the TGI was 3.26 µM in [1]; above 100 µM in [10]; above 100 µM in experiment [2]; above 100 µM in experiment [3]; above 100 µM in [4]; above 100 µM in experiment [5]. This molecule had a TGI in [8] above 100 µM.

Turning to `CC1=C[C@@H](C)C[C@]2(C)CC[C@H](O2)[C@]23CC[C@](CO)(C[C@H](O2)[C@@H]2O[C@@](C)(CC2=O)[C@@H](O)[C@H]2CC[C@@]4(CCC[C@@H](O4)[C@H](C)C(=O)O[C@H]4C[C@H]([C@]5(O)OCC[C@H](C)[C@@H]5O)O[C@H]4C=C1)O2)O3`, the TGI in experiment [1] is above 10 µM; in experiment [10] it was above 10 µM; in experiment [2], above 10 µM; in experiment [3], above 10 µM; in [4], above 10 µM; in [6], 0.00697 µM. Also, the TGI was above 10 µM in [7], above 10 µM in [8] and 0.00776 µM in experiment [9].

As for `COC(=O)C1CC23C4=C(CCC41)CCC1CN4CC(C)C(CC(OC(C)=O)C12COC(C)=O)C43O` (centres undefined), the TGI in [1], in experiment [10], in [2], in experiment [3], in experiment [4] and in experiment [5] was above 100 µM in each case. In addition, the TGI in [6], in experiment [7], in experiment [8] and in [9] was above 100 µM in each case.

As to `Cc1n[n+]([O-])c(C)cc1[N+](=O)[O-]`, the TGI came to 6.31 µM in [1]; 45.6 µM in experiment [10]; 30.2 µM in [2]; 29.3 µM in [3]; 31.6 µM in experiment [4]; 29.9 µM in experiment [5]. For the same molecule, the TGI in experiment [6] was 34.3 µM; in [7], 36.8 µM; in experiment [9], 66.9 µM.

As to `N#Cc1ccccc1C#C/C=C\C#Cc1ccccc1N`, the GI50 is 2.28 µM in experiment [1]; 67.9 µM in [10]; 7.88 µM in [2]; 3.85 µM in [3]; 2.88 µM in experiment [5]; 2.45 µM in experiment [6]. The figures for the GI50 in experiment [7], in experiment [8] and in experiment [9] were 5 µM, 2.55 µM and 5.29 µM, respectively. Moreover, the TGI in [1] is above 93 µM; in experiment [10], above 100 µM; in experiment [2], above 38.3 µM; in [5] it was 29.2 µM; in experiment [6], above 78.2 µM; in experiment [7], above 62.6 µM. In addition, the TGI in experiment [8] was above 51.3 µM; in experiment [9] it was above 25.5 µM.

On to `CC1=CC(O)C(C(O)(C(F)(F)F)C(F)(F)F)C(C)(C)C1` (centres undefined), for which the TGI in [1], in experiment [10], in experiment [2], in experiment [3], in experiment [4] and in [5] was above 10 µM throughout. Moreover, the TGI in experiment [6], in [7], in experiment [8] and in [9] was above 10 µM in each case.

In the case of `O=C1C2Cc3c(n(C(=O)c4ccccc4)c4ccccc34)CC2C(=O)N1c1ccc(Nc2ccc(N3C(=O)C4Cc5c(n(C(=O)c6ccccc6)c6ccccc56)CC4C3=O)cc2)cc1` (centres undefined), the TGI in [10], in experiment [2], in experiment [3], in experiment [4], in [5] and in experiment [6] was above 100 µM throughout. Also, the TGI in [7], in experiment [8] and in experiment [9] was above 100 µM throughout.

As to `Cc1ccc2nc(-c3ccc(NC(=O)c4ccc(N)cc4)c(S(=O)(=O)O)c3)sc2c1`, the TGI in [1], in experiment [10], in experiment [2], in [3], in experiment [4] and in [5] was above 100 µM each time. The TGI in experiment [6], in experiment [7], in [8] and in experiment [9] was above 100 µM each time.

Regarding `N=c1ccc2nc(N)nn(O)c-2c1`, the TGI in experiment [1], in experiment [10], in experiment [2], in experiment [3], in experiment [4] and in experiment [5] was above 100 µM throughout. In addition, the TGI in experiment [7], in experiment [8] and in experiment [9] was above 100 µM in each case.

Consider `O=C(Cc1csc2nc(-c3ccc(Cl)cc3)cn12)N/N=C/c1ccccc1O`, for which the GI50 in [1] is 3.36 µM; in experiment [10], 3.34 µM; in experiment [2], 1.77 µM; in [3] it was 0.468 µM; in [5] it was 5.32 µM; in experiment [6], 3.39 µM. Besides, the GI50 in experiment [7] is 38.8 µM; in experiment [8], 2.81 µM; in [9] it was 10 µM. The TGI was above 100 µM in experiment [1]; above 100 µM in experiment [10]; above 100 µM in experiment [2]; above 100 µM in [3]; above 100 µM in [5]; 32.4 µM in [6]. Besides, the TGI in experiment [7], in [8] and in [9] was above 100 µM each time.

Take `O=C(CC(c1ccccc1)C1C(=O)NC(=S)NC1=O)c1ccc([N+](=O)[O-])cc1` (centres undefined): the TGI in [1] is above 100 µM; in experiment [10], 37.5 µM; in experiment [2], above 100 µM; in [3] it was above 100 µM; in experiment [4] it was above 100 µM; in [5], above 100 µM. In addition, the TGI in [6], in experiment [7], in experiment [8] and in experiment [9] was above 100 µM each time.

For the molecule `Nc1nnc(CCC(=O)Nc2cc(Cl)ccc2Cl)n1N`, the TGI in experiment [1], in [2], in experiment [3], in experiment [4], in experiment [5] and in experiment [6] was above 100 µM each time. For the same molecule, the TGI in [7] and in experiment [8] was above 100 µM in each case.

`Cc1oc(N)c(S(=O)(=O)c2cc3ccccc3n(O)c2=N)c1C`: the TGI in experiment [1], in experiment [10], in experiment [2], in [3], in experiment [5] and in experiment [6] was above 100 µM throughout. The TGI in experiment [7], in experiment [8] and in experiment [9] was above 100 µM in each case.

Take `O=C(O)C(O)C(O)C(O)C(O)C(=O)O` (centres undefined): the TGI in [10], in experiment [2], in experiment [3], in [4], in experiment [5] and in [6] was above 100 µM throughout. Also, the TGI in experiment [7] and in experiment [8] was above 100 µM in each case.

`Cn1c2[n+](c3nc(N)[nH]c(=O)c31)C1OC(C2)C(O)C1O` (centres undefined): the TGI in experiment [2], in experiment [4], in [5], in experiment [6], in [7] and in experiment [8] was above 100 µM throughout.

Regarding `Cc1cc(C)c2c(=O)n(CC(O)CN3CCN(CCOCCO)CC3)sc2n1` (centres undefined), the TGI in experiment [10] is 34.2 µM; in experiment [2], 35 µM; in [3], above 100 µM; in experiment [4], 30.8 µM; in experiment [5] it was 30.3 µM; in experiment [6] it was 40.6 µM. For the same molecule, the TGI was determined as 34.8 µM in experiment [7], 48 µM in [8] and 77.8 µM in experiment [9].

As to `O=C1/C(=C/c2[nH]ncc2-c2ccc(Cl)cc2)C(=O)N(c2ccccc2)C1c1ccccc1` (centres undefined), the TGI in [1] is 32.2 µM; in [10] it was above 100 µM; in experiment [2], 85.2 µM; in experiment [3], 36.9 µM; in experiment [4], 25 µM; in experiment [5] it was 28.8 µM. For the same molecule, the TGI in experiment [6] was determined as 76 µM; in [8], 79.5 µM; in experiment [9], 24.2 µM.
